Test results published in patent publication US12673975B2, “Cyclic peptide, cell scaffold material, cell separating material, and medium” (FUJIFILM Corporation, priority 2019, dated 2026).
Read-outs that look alike come from different tables or passages of the source. Starred links: 1 amine or outer side, 2 acyl side, 3 side chain; linkers in the order of their positions; H or OH if unused. Positions of bridges follow the written chain, without caps; N, C: chain ends. Non-standard residues stand in square brackets, D forms with d. Residues, ends and D or L forms follow the SMILES beside them. hCys = N[C@@H](CCS)C(=O)O; Dab = NCC[C@H](N)C(=O)O; X1 = O=C(C[*:2])[*:1]; X2 = O=C(C[*:1])[*:2]

Experiments:
[1] = molecular target: human integrin αvβ5 (Homo sapiens, UniProt P06756+P18084); assay: Evaluation of integrin binding property (surface plasmon resonance, Biacore 3000, immobilized cyclic peptide)
In short: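 Human αvβ5 (30-1,000 nM) flowed for 10 min at 25 °C over immobilized cyclic peptide in 20 mM HEPES, 150 mM NaCl, 5 mM MgCl2, pH 7.4, followed by 30 min running buffer and 0.5 M EDTA regeneration. Dissociation constant from peptide minus unimmobilized channel, scored into standard grades.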

[2] = Evaluation of molecule stability (alkali treatment, residual rate by LC/MS); assay type: physicochemical; conditions: for Stability (molecule stability, residual rate of the cyclic peptide rank): alkali treatment, residual rate by LC/MS; for Performance evaluation: Stability (residual rate of cyclic peptide after alkali treatment): 500 μM peptide aqueous solution plus equivalent of 1 M sodium hydroxide, 15° C., 3 hours, LC/MS peak area
In short: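 Stability read as percent of summed LC/MS peak area remaining versus untreated peptide (C18, 45 °C, 10 mM ammonium formate pH 3, ESI positive/negative). Treatment: 500 μM peptide in water plus an equivalent of 1 M NaOH, 15 °C for 3 hours.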

[3] = surface plasmon resonance, immobilized cyclic peptide, human integrin αvβ5, read-out: Binding activity (integrin binding property, dissociation constant rank)
[4] = SPR, 25° C., HEPES buffer with 5 mM magnesium chloride, integrin 30-1,000 nM, read-out: Performance evaluation: Binding activity (dissociation constant between the cyclic peptide and human integrin αvβ5)

Chain of human integrin αvβ5 (P06756 31-1048): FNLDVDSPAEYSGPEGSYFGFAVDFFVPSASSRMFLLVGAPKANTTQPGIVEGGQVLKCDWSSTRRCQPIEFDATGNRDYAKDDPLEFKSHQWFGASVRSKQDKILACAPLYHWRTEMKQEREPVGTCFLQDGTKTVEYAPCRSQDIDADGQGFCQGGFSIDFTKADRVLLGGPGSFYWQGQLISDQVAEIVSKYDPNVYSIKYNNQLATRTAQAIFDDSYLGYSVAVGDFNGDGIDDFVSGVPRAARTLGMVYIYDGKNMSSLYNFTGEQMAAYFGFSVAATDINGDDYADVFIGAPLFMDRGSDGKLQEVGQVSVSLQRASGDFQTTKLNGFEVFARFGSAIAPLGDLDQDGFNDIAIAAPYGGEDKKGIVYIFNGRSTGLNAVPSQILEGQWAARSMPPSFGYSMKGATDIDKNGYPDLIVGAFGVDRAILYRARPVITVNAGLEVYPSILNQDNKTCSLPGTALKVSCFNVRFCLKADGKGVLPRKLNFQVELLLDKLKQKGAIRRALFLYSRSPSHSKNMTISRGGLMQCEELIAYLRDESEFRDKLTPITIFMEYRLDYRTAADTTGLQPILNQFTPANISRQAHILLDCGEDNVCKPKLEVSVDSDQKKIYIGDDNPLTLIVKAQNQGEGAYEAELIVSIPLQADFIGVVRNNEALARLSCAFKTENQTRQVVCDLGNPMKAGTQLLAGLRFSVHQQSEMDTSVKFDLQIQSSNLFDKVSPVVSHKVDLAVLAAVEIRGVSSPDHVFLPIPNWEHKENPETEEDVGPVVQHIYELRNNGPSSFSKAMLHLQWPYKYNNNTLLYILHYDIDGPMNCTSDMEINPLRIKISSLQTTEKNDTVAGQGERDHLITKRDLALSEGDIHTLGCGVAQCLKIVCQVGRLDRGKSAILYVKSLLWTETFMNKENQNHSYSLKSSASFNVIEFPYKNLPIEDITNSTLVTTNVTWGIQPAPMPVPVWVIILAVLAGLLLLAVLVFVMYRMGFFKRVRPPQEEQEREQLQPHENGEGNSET
Chain of human integrin αvβ5 (P18084 24-799): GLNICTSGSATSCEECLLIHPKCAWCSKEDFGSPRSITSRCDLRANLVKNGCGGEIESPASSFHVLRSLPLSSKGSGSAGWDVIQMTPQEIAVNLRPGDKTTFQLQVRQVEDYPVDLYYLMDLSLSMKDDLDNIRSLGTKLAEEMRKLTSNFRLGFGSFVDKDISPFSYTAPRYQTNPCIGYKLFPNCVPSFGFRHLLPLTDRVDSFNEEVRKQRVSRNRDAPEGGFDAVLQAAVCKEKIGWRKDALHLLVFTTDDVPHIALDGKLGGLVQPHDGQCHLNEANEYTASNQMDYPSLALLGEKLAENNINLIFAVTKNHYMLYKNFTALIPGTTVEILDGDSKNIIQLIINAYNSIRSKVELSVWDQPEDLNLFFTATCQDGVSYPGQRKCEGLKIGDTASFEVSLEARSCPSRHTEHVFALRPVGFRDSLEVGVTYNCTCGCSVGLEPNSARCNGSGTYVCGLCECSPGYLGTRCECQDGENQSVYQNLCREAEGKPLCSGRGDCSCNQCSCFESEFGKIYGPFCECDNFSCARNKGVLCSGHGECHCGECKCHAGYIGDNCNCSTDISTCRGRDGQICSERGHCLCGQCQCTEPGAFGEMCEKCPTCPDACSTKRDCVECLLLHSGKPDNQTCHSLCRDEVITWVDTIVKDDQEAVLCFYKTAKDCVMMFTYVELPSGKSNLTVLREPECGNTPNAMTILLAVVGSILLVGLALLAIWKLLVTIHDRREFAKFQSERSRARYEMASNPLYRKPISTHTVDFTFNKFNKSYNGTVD

Row | SMILES | Kd [1, 3] | Stability (molecule stability, residual rate of the cyclic peptide rank) [2] | Kd [1, 4] | Performance evaluation: Stability (residual rate of cyclic peptide after alkali treatment) [2]
1 | C[C@H](NC(=O)[C@@H]1CCNC(=O)CSCC[C@H](NC(=O)[C@H](C)NC(=O)[C@H](CCCCN)NC(=O)[C@H](CCCCN)NC(=O)[C@@H](N)CCCCN)C(=O)N[C@@H]([C@@H](C)O)C(=O)N[C@@H]([C@@H](C)O)C(=O)N[C@@H](CCCNC(=N)N)C(=O)NCC(=O)N[C@@H](CC(=O)O)C(=O)N[C@@H](CO)C(=O)N[C@@H](Cc2ccccc2)C(=O)N[C@@H](C)C(=O)N1)C(=O)O [Cyclic peptide 161, KKKA-(Hcy)-TTRGDSFA(Dab(acetyl))A] (H-KKKA[hCys]TTRGDSFA[Dab]A-OH; linker 5-14 via X2) | 50 to 100 nM | A (The residual rate of the cyclic peptide is 70% or more.) | – | –
2 | CC(C)[C@@H]1NC(=O)[C@@H](NC(=O)[C@H](CCCCN)NC(=O)[C@H](CCCCN)NC(=O)[C@@H](N)CCCCN)CCSCC(=O)NCC[C@@H](C(=O)O)NC(=O)CNC(=O)[C@H](Cc2ccccc2)NC(=O)[C@H]([C@@H](C)O)NC(=O)[C@H](CC(=O)O)NC(=O)CNC(=O)[C@H](CCCNC(=N)N)NC(=O)[C@@H]2CCCN2C1=O [Cyclic peptide 152, KKK-(Hcy)-VPRGDTFG(Dab(acetyl))] (H-KKK[hCys]VPRGDTFG[Dab]-OH; linker 4-13 via X2) | < 50 nM | A (The residual rate of the cyclic peptide is 70% or more.) | – | –
3 | CC[C@H](C)[C@@H]1NC(=O)[C@@H](NC(=O)CNC(=O)[C@H](CCCCN)NC(=O)[C@H](CCCCN)NC(=O)[C@@H](N)CCCCN)CCSCC(=O)NCC[C@@H](C(=O)NCC(=O)O)NC(=O)[C@H](C)NC(=O)[C@H](Cc2ccccc2)NC(=O)[C@H]([C@@H](C)O)NC(=O)[C@H](CC(=O)O)NC(=O)CNC(=O)[C@H](CCCNC(=N)N)NC(=O)[C@@H]2CCCN2C1=O [Cyclic peptide 84, KKKG-(Hcy)-IPRGDTFA(Dab(acetyl))G] (H-KKKG[hCys]IPRGDTFA[Dab]G-OH; linker 5-14 via X2) | – | – | < 50 nM | A (The residual rate of the cyclic peptide is 70% or more.)
4 | C[C@H](NC(=O)[C@H](CCCCN)NC(=O)[C@H](CCCCN)NC(=O)[C@@H](N)CCCCN)C(=O)N[C@H]1CCSCC(=O)NCC[C@@H](C(=O)N[C@@H](CC(=O)O)C(=O)O)NC(=O)[C@H](CCCNC(=N)N)NC(=O)[C@H](Cc2ccc(O)cc2)NC(=O)[C@H](CO)NC(=O)[C@H](CC(=O)O)NC(=O)CNC(=O)[C@H](CCCNC(=N)N)NC(=O)[C@@H]2CCCN2C(=O)[C@H](CCC(=O)O)NC1=O [Cyclic peptide 33, KKKA-(Hcy)-EPRGDSYR(Dab(acetyl))D] (H-KKKA[hCys]EPRGDSYR[Dab]D-OH; linker 5-14 via X2) | – | – | 100 to 200 nM | A (The residual rate of the cyclic peptide is 70% or more.)
5 | CC[C@H](C)[C@@H]1NC(=O)[C@@H](NC(=O)CNC(=O)[C@H](CCCCN)NC(=O)[C@H](CCCCN)NC(=O)[C@@H](N)CCCCN)CCNC(=O)CSC[C@@H](C(=O)N[C@@H](C)C(=O)O)NC(=O)[C@H](CCCNC(=N)N)NC(=O)[C@H](Cc2ccccc2)NC(=O)[C@H]([C@@H](C)O)NC(=O)[C@H](CC(=O)O)NC(=O)CNC(=O)[C@H](CCCNC(=N)N)NC(=O)[C@@H]2CCCN2C1=O [Cyclic peptide 138, KKKG(Dab(acetyl))IPRGDTFR(C)A] (H-KKKG[Dab]IPRGDTFRCA-OH; linker 5-14 via X1) | 50 to 100 nM | C (The residual rate of the cyclic peptide is 30% or more and less than 50%.) | – | –
6 | C[C@@H]1NC(=O)[C@H](Cc2ccccc2)NC(=O)[C@H]([C@@H](C)O)NC(=O)[C@H](CC(=O)O)NC(=O)CNC(=O)[C@H](CCCNC(=N)N)NC(=O)[C@@H]2CCCN2C(=O)[C@H](CCC(=O)O)NC(=O)[C@@H](NC(=O)[C@H](CCCCN)NC(=O)[C@H](CCCCN)NC(=O)[C@@H](N)CCCCN)CCSCC(=O)NCC[C@@H](C(=O)O)NC1=O [Cyclic peptide 145, KKK-(Hcy)-EPRGDTFA(Dab(acetyl))] (H-KKK[hCys]EPRGDTFA[Dab]-OH; linker 4-13 via X2) | < 50 nM | A (The residual rate of the cyclic peptide is 70% or more.) | – | –
7 | CC(C)[C@@H]1NC(=O)[C@@H](NC(=O)[C@H](C)NC(=O)[C@H](CCCCN)NC(=O)[C@H](CCCCN)NC(=O)[C@@H](N)CCCCN)CCNC(=O)CSCC[C@@H](C(=O)N[C@@H](C)C(=O)O)NC(=O)[C@H](C)NC(=O)[C@H](Cc2ccccc2)NC(=O)[C@H]([C@@H](C)O)NC(=O)[C@H](CC(=O)O)NC(=O)CNC(=O)[C@H](CCCNC(=N)N)NC(=O)[C@@H]2CCCN2C1=O [Cyclic peptide 122, KKKA(Dab(acetyl))VPRGDTFA-(Hcy)-A] (H-KKKA[Dab]VPRGDTFA[hCys]A-OH; linker 5-14 via X1) | < 50 nM | A (The residual rate of the cyclic peptide is 70% or more.) | – | –
8 | CC[C@H](C)[C@@H]1NC(=O)[C@@H](NC(=O)[C@H](C)NC(=O)[C@H](CCCCN)NC(=O)[C@H](CCCCN)NC(=O)[C@@H](N)CCCCN)CCSCC(=O)NCC[C@@H](C(=O)N[C@@H](C)C(=O)O)NC(=O)[C@H](CCCNC(=N)N)NC(=O)[C@H](Cc2ccccc2)NC(=O)[C@H](C(C)C)NC(=O)[C@H](CC(=O)O)NC(=O)CNC(=O)[C@H](CCCNC(=N)N)NC(=O)[C@@H]2CCCN2C1=O [Cyclic peptide 78, KKKA-(Hcy)-IPRGDVFR(Dab(acetyl))A] (H-KKKA[hCys]IPRGDVFR[Dab]A-OH; linker 5-14 via X2) | – | – | < 50 nM | A (The residual rate of the cyclic peptide is 70% or more.)
9 | CC[C@H](C)[C@@H]1NC(=O)[C@@H](NC(=O)[C@H](CCCCN)NC(=O)[C@H](CCCCN)NC(=O)[C@@H](N)CCCCN)CCSCC(=O)NCC[C@@H](C(=O)N[C@@H](C)C(=O)O)NC(=O)[C@H](C)NC(=O)[C@H](CCCNC(=N)N)NC(=O)[C@H](Cc2ccccc2)NC(=O)[C@H](CC(N)=O)NC(=O)[C@H](CC(=O)O)NC(=O)CNC(=O)[C@H](CCCNC(=N)N)NC(=O)[C@@H]2CCCN2C1=O [Cyclic peptide 16, KKK-(Hcy)-IPRGDNFRA(Dab(acetyl))A] (H-KKK[hCys]IPRGDNFRA[Dab]A-OH; linker 4-14 via X2) | – | – | 50 to 100 nM | A (The residual rate of the cyclic peptide is 70% or more.)
10 | C[C@H](NC(=O)[C@@H]1CCNC(=O)CSCC[C@H](NC(=O)CNC(=O)[C@H](CCCCN)NC(=O)[C@H](CCCCN)NC(=O)[C@@H](N)CCCCN)C(=O)N2CCC[C@H]2C(=O)N[C@@H](CCCNC(=N)N)C(=O)NCC(=O)N[C@@H](CC(=O)O)C(=O)N[C@@H](CC(N)=O)C(=O)N[C@@H](Cc2ccccc2)C(=O)N[C@@H](CCCNC(=N)N)C(=O)N1)C(=O)O [Cyclic peptide 8, KKKG-(Hcy)-PRGDNFR(Dab(acetyl))A] (H-KKKG[hCys]PRGDNFR[Dab]A-OH; linker 5-13 via X2) | – | – | 50 to 100 nM | A (The residual rate of the cyclic peptide is 70% or more.)
11 | CC[C@H](C)[C@@H]1NC(=O)[C@@H](NC(=O)CNC(=O)[C@H](CCCCN)NC(=O)[C@H](CCCCN)NC(=O)[C@@H](N)CCCCN)CCCCNC(=O)CSCC[C@@H](C(=O)N[C@@H](C)C(=O)O)NC(=O)[C@H](CCCNC(=N)N)NC(=O)[C@H](Cc2ccccc2)NC(=O)[C@H]([C@@H](C)O)NC(=O)[C@H](CC(=O)O)NC(=O)CNC(=O)[C@H](CCCNC(=N)N)NC(=O)[C@@H]2CCCN2C1=O [Cyclic peptide 120, KKKG(Lys(acetyl))IPRGDTFR-(Hcy)-A] (H-KKKGKIPRGDTFR[hCys]A-OH; linker 5-14 via X1) | 50 to 100 nM | A (The residual rate of the cyclic peptide is 70% or more.) | – | –
12 | CC(C)[C@@H]1NC(=O)[C@@H](NC(=O)[C@H](C)N)CCSCC(=O)NCC[C@@H](C(=O)N[C@@H](C)C(=O)N[C@@H](CCCCN)C(=O)N[C@@H](CCCCN)C(=O)N[C@@H](CCCCN)C(=O)O)NC(=O)[C@H](C)NC(=O)[C@H](Cc2ccccc2)NC(=O)[C@H]([C@@H](C)O)NC(=O)[C@H](CC(=O)O)NC(=O)CNC(=O)[C@H](CCCNC(=N)N)NC(=O)[C@@H]2CCCN2C1=O [Cyclic peptide 109, A-(Hcy)-VPRGDTFA(Dab(acetyl))AKKK] (H-A[hCys]VPRGDTFA[Dab]AKKK-OH; linker 2-11 via X2) | < 50 nM | A (The residual rate of the cyclic peptide is 70% or more.) | – | –
13 | CC(C)[C@@H]1NC(=O)[C@@H](NC(=O)[C@H](C)NC(=O)[C@H](CCCCN)NC(=O)[C@H](CCCCN)NC(=O)[C@@H](N)CCCCN)CCSCC(=O)NCC[C@@H](C(=O)N[C@@H](C)C(=O)O)NC(=O)[C@H](C)NC(=O)[C@H](Cc2ccccc2)NC(=O)[C@H]([C@@H](C)O)NC(=O)[C@H](CC(=O)O)NC(=O)CNC(=O)[C@H](CCCNC(=N)N)NC(=O)[C@@H]2CCCN2C1=O [Cyclic peptide 108, KKKA-(Hcy)-VPRGDTFA(Dab(acetyl))A] (H-KKKA[hCys]VPRGDTFA[Dab]A-OH; linker 5-14 via X2) | < 50 nM | A (The residual rate of the cyclic peptide is 70% or more.) | – | –
